# According to US7935699B2, “Pyrazole glucokinase activators” (Hoffmann-La Roche Inc., priority 2006, dated 2011):
# Tests used:
# [1] = molecular target: T1, Recombinant human liver GK1 (GST-GK) (Homo sapiens, UniProt P35557); experiment: Glucokinase in vitro assay (G6PDH-coupled, NADH at OD340); type: biochemical; conditions: for SC1.5 (concentration of activator that produced a 50% increase in the activity of GK): 25° C., 5 mM D-glucose, 10% DMSO, GST-GK; for glucokinase activation (in words): qualitative statement
# T1 construct: made in house; host or cells: E. coli
# T1 sequence (P35557 1-466 isoform P35557-2): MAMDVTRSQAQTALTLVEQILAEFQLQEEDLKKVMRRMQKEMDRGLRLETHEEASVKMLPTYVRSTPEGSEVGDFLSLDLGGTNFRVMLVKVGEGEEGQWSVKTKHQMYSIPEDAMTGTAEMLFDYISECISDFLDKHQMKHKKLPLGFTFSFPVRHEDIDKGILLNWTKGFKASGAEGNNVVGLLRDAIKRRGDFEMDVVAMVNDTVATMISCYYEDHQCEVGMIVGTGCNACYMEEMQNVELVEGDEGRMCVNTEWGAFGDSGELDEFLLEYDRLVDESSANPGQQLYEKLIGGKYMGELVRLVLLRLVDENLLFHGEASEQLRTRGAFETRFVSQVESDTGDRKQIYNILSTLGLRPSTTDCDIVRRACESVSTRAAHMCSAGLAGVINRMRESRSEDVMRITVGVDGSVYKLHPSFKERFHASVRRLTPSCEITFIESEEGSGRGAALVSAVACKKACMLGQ
# Experimental: Glucokinase In Vitro Assay Protocol: Glucokinase (GK) was assayed by coupling the production of glucose-6-phosphate to the generation of NADH with glucose-6-phosphate dehydrogenase (G6PDH, 0.75-1 kunits/mg; Boehringer Mannheim, Indianapolis, Ind.) from Leuconostoc mesenteroides as the coupling enzyme (Scheme 2).
# Recombinant human liver GK1 was expressed in E. coli as a glutathione S-transferase fusion protein (GST-GK) [Liang et al, 1995] and was purified by chromatography over a glutathione-Sepharose 4B affinity column using the procedure provided by the manufacturer (Amersham Pharmacia Biotech, Piscataway, N.J.).
# The assay was conducted at 25° C. in a flat bottom 96-well tissue culture plate from Costar (Cambridge, Mass.) with a final incubation volume of 120 μL. The incubation reaction contained the following: 25 mM Hepes buffer (pH 7.1), 25 mM KCl, 5 mM D-glucose, 1 mM ATP, 1.8 mM NAD, 2 mM MgCl2, 1 μM sorbitol-6-phosphate, 1 mM dithiothreitol, test drug or 10% DMSO, 1.8 unit/ml G6PDH, and GK (see below). All organic reagents were >98% pure and were from Boehringer Mannheim with the exceptions of D-glucose and Hepes which were from Sigma Chemical Co, St Louis, Mo. Test compounds were dissolved in DMSO and were added to the incubation reaction minus GST-GK in a volume of 12 μL to yield a final DMSO concentration of 10%. This mix was pre-incubated in the temperature controlled chamber of a SPECTRAmax 250 microplate spectrophotometer (Molecular Devices Corporation, Sunnyvale, Calif.) for 10 minutes to allow temperature equilibrium and then the reaction was started by the addition of 20 μL GST-GK.
# After addition of enzyme, the increase in optical density (OD) at 340 nm was monitored over a 10 minute incubation period as a measure of GK activity. Sufficient GST-GK was added to produce an increase in OD340 of 0.08 to 0.1 units over the 10 minute incubation period in wells containing 10% DMSO but no test compound. Preliminary experiments established that the GK reaction was linear over this period of time even in the presence of activators that produced a 5-fold increase in GK activity. The GK activity in control wells was compared with the activity in wells containing test GK activators, and the concentration of activator that produced a 50% increase in the activity of GK, i.e., the SC1.5, was calculated.
# [2] = tested on: Diet-Induced Obese (DIO) C57BL/6J mice; experiment: Glucokinase activator in vivo screen, blood glucose in DIO mice; conditions: Mus musculus; 2 hours post 25 mg/kg oral dose in DIO mice, vs control; read-out: % gluc @ 2 H (% glucose lowering vs control)
# Experimental: Glucokinase Activator in vivo Screen Protocol in Lean and Diet Induced Obese Mice: Lean or Diet-Induced Obese (DIO) C57BL/6J mice were orally dosed via gavage with Glucokinase (GK) activator (50 mg/kg body weight for lean mice, 25 mg/kg body weight for DIO mice) following a two hour fasting period. Blood glucose determinations were made four times during the six hour post-dose study period.
# C57Bl/6J mice were obtained from Jackson Laboratory (Bar Harbor, Me.) and were maintained in a light-dark cycle with lights on from 0600-1800 hr. For studies in lean mice, the mice were received at age six weeks and given ad libitum access to control diet (LabDiet 5001 chow, PMI Nutrition, Brentwood, Mo.), and were at least age 11 weeks at the time of study. For studies in the DIO model, the mice were received at age five weeks and given ad libitum access to Bio-Serv F3282 High Fat Diet (Frenchtown, N.J.), and were at least age 16 weeks at the time of study. The experiments were conducted during the light phase of the light-dark cycle. Mice (n=6) are weighed and fasted for a two hour period prior to oral treatment. GK activators are formulated in Gelucire vehicle (Ethanol:Gelucire44/14:PEG400q.s. 4:66:30 v/w/v. For studies in lean mice, the mice were dosed orally with 5.0 μL per gram of body weight with 5 ml/kg×10.0 mg/ml formulation to equal a 50 mg/kg dose. For studies in DIO mice, the mice were dosed orally with 5.0 μL per gram of body weight with […] formulation to equal a 25 mg/kg dose. Immediately prior to dosing, a pre-dose (time zero) blood glucose reading was acquired by snipping off a small portion of the animal's tail (˜1 mm) and collecting 15 μL blood into a heparinized capillary tube for analysis. Following GK activator administration, additional blood glucose readings were taken at 2, 4 and 6 hours post dose from the same tail wound. Results were interpreted by comparing the mean blood glucose values of six vehicle treated mice with six GK activator treated mice over the six hour study duration.
SMILES,SC1.5 (concentration of activator that produced a 50% increase in the activity of GK) [1],glucokinase activation (in words) [1],change in vivo at 25 mg/kg [2]
"CCCNC(=O)CCn1ccc(NC(=O)[C@H](CC2CCCC2)c2ccc(S(C)(=O)=O)c(Cl)c2)n1 [Example 11, 2(R)-(3-Chloro-4-methanesulfonyl-phenyl)-3-cyclopentyl-N-[1-(2-propylcarbamoyl-ethyl)-1H-pyrazol-3-yl]-propionamide]",0.45 µM,–,–
"CC(C)(O)Cn1ccc(NC(=O)[C@H](CC2COC2)c2ccc(S(C)(=O)=O)c(Cl)c2)n1 (single isomer, unassigned) [Example 92]",–,active,–
"CS(=O)(=O)c1ccc([C@@H](CC2CCCC2)C(=O)Nc2cc[nH]n2)cc1Cl [Example 2, 2(R)-(3-Chloro-4-methanesulfonyl-phenyl)-3-cyclopentyl-N-(1H-pyrazol-3-yl)-propionamide]",0.28 µM,–,–
"CC(C)n1ccc(NC(=O)[C@H](CC2CCCC2)c2ccc(S(C)(=O)=O)c(Cl)c2)n1 [Example 56, 2-(R)(3-Chloro-4-methanesulfonyl-phenyl)-3-cyclopentyl-N-(1-isopropyl-1H-pyrazol-3-yl)-propionamide]",0.13 µM,–,–
"CS(=O)(=O)c1ccc([C@@H](CC2CCCC2)C(=O)Nc2ccn(CC(=O)N3CCOCC3)n2)cc1Cl [Example 7, 2(R)-(3-Chloro-4-methanesulfonyl-phenyl)-3-cyclopentyl-N-[1-(2-morpholin-4-yl-2-oxo-ethyl)-1H-pyrazol-3-yl]-propionamide]",–,–,-15.3%
"CC(C)(C)OC(=O)CCn1ccc(NC(=O)[C@H](CC2CCCC2)c2ccc(S(C)(=O)=O)c(Cl)c2)n1 [Example 8, 3-{3-[2(R)-(3-Chloro-4-methanesulfonyl-phenyl)-3-cyclopentyl-propionylamino]-pyrazol-1-yl}-propionic acid tert-butyl ester]",0.2 µM,–,–
"CS(=O)(=O)c1ccc([C@@H](CC2CCCC2)C(=O)Nc2ccn(Cc3ccccc3)n2)cc1Cl [Example 24, N-(1-Benzyl-1H-pyrazol-3-yl)-2(R)-(3-chloro-4-methanesulfonyl-phenyl)-3-cyclopentyl-propionamide]",0.083 µM,–,–
"CS(=O)(=O)c1ccc([C@@H](CC2CCCC2)C(=O)Nc2ccn(C[C@@H](O)CO)n2)cc1Cl [Example 35, 2-(R)-(3-Chloro-4-methanesulfonyl-phenyl)-3-cyclopentyl-N-[1-((R)-2,3-dihydroxy-propyl)-1H-pyrazol-3-yl]-propionamide]",–,–,-33.2%
"COCCn1ccc(NC(=O)[C@H](CC2CCCC2)c2cccc(C(F)(F)F)c2)n1 [Example 84, 3-Cyclopentyl-N-[1-(2-methoxy-ethyl)-1H-pyrazol-3-yl]-2(R)-(3-trifluoromethyl-phenyl)-propionamide]",–,–,-24.5%
"CS(=O)(=O)c1ccc([C@@H](CC2CCOCC2)C(=O)Nc2ccn(CCO)n2)cc1Cl (single isomer, unassigned) [Example 76]",5.3 µM,active,–
"Cc1cc([C@@H](CC2CCCC2)C(=O)Nc2ccn(CCCO)n2)ccc1S(C)(=O)=O [Example 82, 3-Cyclopentyl-N-[1-(3-hydroxy-propyl)-1H-pyrazol-3-yl]-2(R)-(4-methanesulfonyl-3-methyl-phenyl)-propionamide]",–,–,-38.3%
"CS(=O)(=O)c1ccc([C@@H](CC2CCCC2)C(=O)Nc2ccn(CC3(O)CC3)n2)cc1Cl [Example 73, 2-(R)-(3-Chloro-4-methanesulfonyl-phenyl)-3-cyclopentyl-N-[1-(1-hydroxy-cyclopropylmethyl)-1H-pyrazol-3-yl]-propionamide]",–,–,-48.5%
"CCS(=O)(=O)n1ccc(NC(=O)[C@H](CC2CCCC2)c2ccc(S(C)(=O)=O)c(Cl)c2)n1 [Example 33, 2(R)-(3-Chloro-4-methanesulfonyl-phenyl)-3-cyclopentyl-N-(1-ethanesulfonyl-1H-pyrazol-3-yl)-propionamide]",–,–,-9.8%
"CC(C)(O)Cn1ccc(NC(=O)[C@H](CC2CCOCC2)c2ccc(S(C)(=O)=O)c(Cl)c2)n1 [Example 90, 2(R)-(3-Chloro-4-methanesulfonyl-phenyl)-N-[1-(2-hydroxy-2-methyl-propyl)-1H-pyrazol-3-yl]-3-(tetrahydro-pyran-4-yl)-propionamide]",–,active,–
"CC(C)(O)Cn1ccc(NC(=O)[C@H](CC2CCOCC2)c2ccc(Cl)c(Cl)c2)n1 (single isomer, unassigned) [Example 88]",–,active,–
"O=C(Nc1ccn(CCO)n1)[C@H](CC1CCCC1)c1cccc(C(F)(F)F)c1 [Example 79, 3-Cyclopentyl-N-[1-(2-hydroxy-ethyl)-1H-pyrazol-3-yl]-2(R)-(3-trifluoromethyl-phenyl)-propionamide]",1.433 µM,–,–
"Cc1cc([C@@H](CC2CCCC2)C(=O)Nc2ccn(CCO)n2)ccc1S(C)(=O)=O [Example 78, 3-Cyclopentyl-N-[1-(2-hydroxy-ethyl)-1H-pyrazol-3-yl]-2(R)-(4-methanesulfonyl-3-methyl-phenyl)-propionamide]",–,–,-26.7%
"COCCn1ccc(NC(=O)[C@H](CC2CCCC2)c2ccc(S(C)(=O)=O)c(C)c2)n1 [Example 81, 3-Cyclopentyl-2(R)-(4-methanesulfonyl-3-methyl-phenyl)-N-[1-(2-methoxy-ethyl)-1H-pyrazol-3-yl]-propionamide]",–,–,-31.4%
"COCCCNC(=O)c1ccc(Cn2ccc(NC(=O)[C@H](CC3CCCC3)c3ccc(S(C)(=O)=O)c(Cl)c3)n2)cc1 [Example 47, 4-{3-[2-(R)-(3-Chloro-4-methanesulfonyl-phenyl)-3-cyclopentyl-propionylamino]-pyrazol-1-ylmethyl}-N-(3-methoxy-propyl)-benzamide]",0.03 µM,–,–
"COC(=O)c1ccc(Cn2ccc(NC(=O)[C@H](CC3CCCC3)c3ccc(S(C)(=O)=O)c(Cl)c3)n2)cc1 [Example 44, 4-{3-[2-(R)-(3-Chloro-4-methanesulfonyl-phenyl)-3-cyclopentyl-propionylamino]-pyrazol-1-ylmethyl}-benzoic acid methyl ester]",0.061 µM,–,–
